# Experimental data reported in ChEMBL document CHEMBL1143682, “Investigation into the P3 binding domain of m-calpain using photoswitchable diazo- and triazene-dipeptide aldehydes: new anticataract agents” (J Med Chem, 2007).
# pIC50: −log10 of the molar value.
# Assay: Inhibition of sheep M-calpain by fluorescence based assay
# Set-up: species or system Ovis aries
row,pIC50,SMILES
1,6.77,CC(C)[C@H](NC(=O)c1cccc(/N=N/c2ccccc2)c1)C(=O)N[C@H](C=O)Cc1ccccc1
2,7.46,CC(C)[C@H](NC(=O)c1ccc(/N=N/c2ccccc2)cc1)C(=O)N[C@H](C=O)Cc1ccccc1
